Assay results: patent publication US20260053861A1, “CELL COMPOSITIONS AND METHODS OF USING THE SAME” (THE REGENTS OF THE UNIVERSITY OF CALIFORNIA, priority 2022, published 2026)
Counter-ions that a name gives are not always drawn.

System: hPSC-SCs
Conditions: not given

Compared with `C=C(NC(=O)C(=C)NC(=O)c1csc(C2=N[C@@H]3c4csc(n4)[C@H]4NC(=O)c5csc(n5)[C@H]([C@](C)(O)[C@@H](C)O)NC(=O)[C@H]5CSC(=N5)/C(=C/C)NC(=O)[C@H]([C@@H](C)O)NC(=O)c5csc(n5)[C@]3(CC2)NC(=O)[C@H](C)NC(=O)C(=C)NC(=O)[C@H](C)NC(=O)[C@H]([C@@H](C)CC)N[C@@H]2C=Cc3c([C@H](C)O)cc(nc3[C@H]2O)C(=O)O[C@@H]4C)n1)C(N)=O` [Thiostrepton], `C[C@H]1CC[C@]2(NC1)O[C@H]1C[C@H]3[C@@H]4CC[C@H]5C[C@@H](O[C@@H]6O[C@H](CO)[C@H](O[C@@H]7O[C@H](CO)[C@@H](O)[C@H](O[C@@H]8OC[C@@H](O)[C@H](O)[C@H]8O)[C@H]7O[C@@H]7O[C@H](CO)[C@@H](O)[C@H](O)[C@H]7O)[C@H](O)[C@H]6O)CC[C@]5(C)[C@H]4CC[C@]3(C)[C@H]1[C@@H]2C` [Tomatine] is lower in z.score.t: 0.6013 for the first, −1.873 for the second.

Going from `N[C@@H](Cc1cc(I)c(Oc2cc(I)c(O)c(I)c2)c(I)c1)C(=O)O` [Thyroxine (L)] to `CCNC1(c2cccs2)CCCCC1=O.Cl` (stereo not drawn) [Tiletamine hydrochloride], the z.score.t rises from −0.8478 to 1.958.

Compared with `C[C@H]1CC[C@]2(NC1)O[C@H]1C[C@H]3[C@@H]4CC[C@H]5C[C@@H](O)CC[C@]5(C)[C@H]4CC[C@]3(C)[C@H]1[C@@H]2C` [Tomatidine], `C(#CCN1CCCC1)CN1CCCC1.Cl.Cl` [Tremorine dihydrochloride] is lower in z.score.t: −0.2904 for the first, −0.4139 for the second.

Same assay, conditions: HTS viability of hPSC-SCs in the presence of 30 mM glucose; Prestwick library; Table S4

Going from `CCCCCCCCCCCCCCCC[N+](C)(C)CCN(Cc1ccc(OC)cc1)c1ncccn1` [Thonzonium bromide] to `Cc1cccc(N(C)C(=S)Oc2ccc3ccccc3c2)c1` [Tolnaftate], the z.score.t rises from −1.884 to 0.378.

Compared with `c1ccc2[nH]c(-c3cscn3)nc2c1` [Tiabendazole], `c1ccc(CC2=NCCN2)cc1` [Tolazoline hydrochloride] is lower in z.score.t: 1.638 for the first, 1.268 for the second.

Compared with `CCN(CC)CCNC(=O)c1cc(S(C)(=O)=O)ccc1OC` [Tiapride hydrochloride], `CCCCNc1c(C(=O)OCC)c(C)nc2c1cnn2CC` [Tracazolate hydrochloride] is lower in z.score.t: 0.5452 for the first, −0.9487 for the second.

First: CC(C(=O)O)c1ccc(C(=O)c2ccccc2)s1 (stereo not drawn) [Tiaprofenic acid]
Second: Cc1c(Cl)cccc1Nc1ccccc1C(=O)O [Tolfenamic acid]
The z.score.t of the first is higher: 0.04918 for the first, −0.528 for the second.

Going from `CC1(C)S[C@@H]2[C@H](NC(=O)[C@H](C(=O)O)c3ccsc3)C(=O)N2[C@H]1C(=O)O` [Ticarcillin sodium] to `Cc1ccc(C(=O)c2ccc(CC(=O)O)n2C)cc1` [Tolmetin sodium salt dihydrate], the z.score.t rises from −0.6389 to −0.05622.

Compared with `Clc1ccccc1CN1CCc2sccc2C1` [Ticlopidine hydrochloride], `O=c1n(CCCN2CCN(c3cccc(Cl)c3)CC2)nc2ccccn12` [Trazodone hydrochloride] is lower in z.score.t: 0.7034 for the first, 0.4346 for the second.

Compared with `CCS(=O)(=O)CCn1c([N+](=O)[O-])cnc1C` [Tinidazole], `Cc1cccc(Nc2ccncc2S(=O)(=O)NC(=O)NC(C)C)c1` [Torsemide] is lower in z.score.t: 1.624 for the first, 0.2395 for the second.

Going from `NC[C@H]1O[C@H](O[C@H]2[C@H](O)[C@@H](O[C@H]3O[C@H](CO)[C@@H](O)[C@H](N)[C@H]3O)[C@H](N)C[C@@H]2N)[C@H](N)C[C@@H]1O` [Tobramycin] to `NC[C@H]1CC[C@H](C(=O)O)CC1` [Tranexamic acid], the z.score.t rises from −0.3936 to 1.088.

Going from `Cc1cccc(C)c1NC(=O)C(C)N` (stereo not drawn) [Tocainide hydrochloride] to `CCOC(=O)NNc1nncc2ccccc12` [Todralazine hydrochloride], the z.score.t falls from 0.8938 to −0.4444.

Going from `Cc1c(C)c2c(c(C)c1O)CC[C@@](C)(CCC[C@H](C)CCC[C@H](C)CCCC(C)C)O2` [Tocopherol (R,S)] to `Cc1ccc(S(=O)(=O)NC(=O)NN2CCCCCC2)cc1` [Tolazamide], the z.score.t rises from −0.7233 to 0.1767.

Compound `N[C@@H]1C[C@H]1c1ccccc1` [Tranylcypromine hydrochloride] has a z.score.t of 0.08508.
